# “And” between values parts separate entries of the source, which are not always exact repeats. Equal values may be shown once. Read-outs that look alike come from different tables or passages of the source.
# Columns and labels:
# Type in all cases: cell-based
# [1] = tested on: p53 luciferase transcriptional reporter in MFE319 cells; experiment: p53 luciferase reporter assay; settings: for p53 luciferase reporter signal (normalized), replicates: MFE319
# Description: (§1) Huh7 and MFE319 cell lines stably expressing a p53 reporter (Addgene, 90363)[59] were generated. Cells were plated in 384-well plates (1,500 cells per well) and treated with varying concentrations of compound. Then, 16 h after treatment, firefly luciferase substrate was added to the cells and luminescence was monitored using an EnVision 2105 multimode plate reader.
# [2] = tested on: p53 luciferase transcriptional reporter in Huh7 cells; experiment: p53 luciferase reporter assay; settings: for p53 luciferase reporter signal (normalized), replicates: Huh7
# Description: as §1
# [3] = CellTiter-Glo cell viability; settings: human, p53_construct WT, CTG 4 days, read-out: mean (normalized viability)
# Description: Cells were plated in 384-well plates (typically 1,500 cells per well) with varying concentrations of compounds, with a total volume of 50 μl per well. CTG reagent was added (25 μl) to the solutions, mixed and read out using an EnVision 2105 multimode plate reader.
# [4] = tested on: Halo–p53-Y220C ΔTAD–mCherry 293T cells; experiment: cell-cycle analysis (DNA content, DAPI flow cytometry); set-up: 4N / 8N / Right_of_Gate1 (replicates) / Right_of_Gate2 (replicates) / 2N: unit not given here; settings: Y220C, 1 day
# Description: Cells were split into a 10-cm dish at low confluency (20%) and grown overnight. Cells were synchronized using overnight treatment with palbociclib (150 nM), washed and split into a six-well plate for treatment with compound for 24 h. Cells were harvested by trypsinization, washed twice with cold 1× PBS, fixed by dropwise addition of ice-cold 70% ethanol while vortexing and incubated overnight (4 °C). Fixed samples were centrifuged at 1,000g for 5 min and 70% ethanol was removed. Cells were washed twice with 1× PBS + 1% BSA before DNA labeling with 1 µg ml^−1 DAPI for 10 min at room temperature, before being analyzed for DNA content by flow cytometry (Beckman CytoFLEX LX).
# parental 293T cells = experiment: caspase 3/7 glo; settings: for mean_norm (caspase 3/7 glo): Cell_Line WT, normalized to Concentration 0; for raw caspase 3/7 glo signal, single replicate: WT
# Description: (§2) Cells were plated in 384-well plates (typically 1,500 cells per well) with varying concentrations of compounds with a total volume of 50 μl per well. After 1 day, caspase 3/7 glo reagent (Promega) was added following the manufacturer’s protocol and read out using an EnVision 2105 multimode plate reader.
# [5] = tested on: Halo–p53-Y220C ΔTAD–mCherry 293T cells; experiment: caspase 3/7 glo; settings: for mean_norm (caspase 3/7 glo): Cell_Line Y220C, normalized to Concentration 0; for raw caspase 3/7 glo signal, single replicate: Y220C
# Description: as §2
# [6] = Conc 0.38 (unit not given; p53-01 in μM, BI2536 in nM)
# [7] = Conc 0.75 (unit not given; p53-01 in μM, BI2536 in nM)
# [8] = Conc 1.50 (unit not given; p53-01 in μM, BI2536 in nM)
# [9] = Conc 10.00 (unit not given; per b27 BI2536 in nM)
compound,measurement,setting,value
CC[C@@H]1C(=O)N(C)c2cnc(Nc3ccc(C(=O)NC4CCN(C)CC4)cc3OC)nc2N1C1CCCC1 [BI2536],induction of p53 reporter,[1]; 16 h,no induction of luciferase activity
same,"p53 luciferase reporter signal (normalized), replicates",[1]; log Concentration (pM) 1.68867,0.8432 and 0.8795 and 0.997
same,"p53 luciferase reporter signal (normalized), replicates",[1]; log Concentration (pM) 1.9897,1.008 and 0.9306 and 1.09
same,"p53 luciferase reporter signal (normalized), replicates",[1]; log Concentration (pM) 2.29073,0.7831 and 0.9939 and 0.826
same,"p53 luciferase reporter signal (normalized), replicates",[1]; log Concentration (pM) 2.59176,1.029 and 1.032 and 0.9459
same,"p53 luciferase reporter signal (normalized), replicates",[1]; log Concentration (pM) 2.89279,0.8553 and 0.942 and 1.018
same,"p53 luciferase reporter signal (normalized), replicates",[1]; log Concentration (pM) 3.19382,0.956 and 0.9365 and 0.9572
same,"p53 luciferase reporter signal (normalized), replicates",[1]; log Concentration (pM) 3.49485,0.8748 and 0.9709 and 0.8007
same,"p53 luciferase reporter signal (normalized), replicates",[1]; log Concentration (pM) 3.79588,0.8943 and 0.9669 and 0.8623
same,"p53 luciferase reporter signal (normalized), replicates",[1]; log Concentration (pM) 4.09691,0.6004 and 0.8065 and 0.6757
same,"p53 luciferase reporter signal (normalized), replicates",[1]; log Concentration (pM) 4.39794,0.6617 and 0.6465 and 0.5696
same,"p53 luciferase reporter signal (normalized), replicates",[1]; log Concentration (pM) 4.69897,0.5274 and 0.6902 and 0.6941
same,"p53 luciferase reporter signal (normalized), replicates",[1]; log Concentration (pM) 5,0.7269 and 0.634 and 0.6632
same,induction of p53 reporter,"[2]; 16 h, PMV6 at doses of 1.25–10 μM",no such effect
same,"p53 luciferase reporter signal (normalized), replicates",[2]; log Concentration (pM) 1.68867,1.071 and 1.082 and 0.9754
same,"p53 luciferase reporter signal (normalized), replicates",[2]; log Concentration (pM) 1.9897,0.9944 and 0.9877 and 0.9088
same,"p53 luciferase reporter signal (normalized), replicates",[2]; log Concentration (pM) 2.29073,0.9631 and 0.9698 and 0.9782
same,"p53 luciferase reporter signal (normalized), replicates",[2]; log Concentration (pM) 2.59176,1.0179 and 0.8887 and 0.8977
same,"p53 luciferase reporter signal (normalized), replicates",[2]; log Concentration (pM) 2.89279,1.088 and 0.9771 and 0.9776
same,"p53 luciferase reporter signal (normalized), replicates",[2]; log Concentration (pM) 3.19382,1.04 and 1.0179 and 1.023
same,"p53 luciferase reporter signal (normalized), replicates",[2]; log Concentration (pM) 3.49485,0.8529 and 0.9603 and 1.044
same,"p53 luciferase reporter signal (normalized), replicates",[2]; log Concentration (pM) 3.79588,0.8775 and 0.9273 and 0.8786
same,"p53 luciferase reporter signal (normalized), replicates",[2]; log Concentration (pM) 4.09691,0.9161 and 0.9032 and 0.92
same,"p53 luciferase reporter signal (normalized), replicates",[2]; log Concentration (pM) 4.39794,0.8747 and 0.91 and 0.9648
same,"p53 luciferase reporter signal (normalized), replicates",[2]; log Concentration (pM) 4.69897,0.9245 and 0.9167 and 0.9228
same,"p53 luciferase reporter signal (normalized), replicates",[2]; log Concentration (pM) 5,0.7964 and 0.863 and 0.8635
same,viability at 4 days,[3]; Compound_conc 0.0488281,97%
same,viability at 4 days,[3]; Compound_conc 0.0976562,111%
same,viability at 4 days,[3]; Compound_conc 0.195312,98.9%
same,viability at 4 days,[3]; Compound_conc 0.390625,103%
same,viability at 4 days,[3]; Compound_conc 0.78125,103%
same,viability at 4 days,[3]; Compound_conc 1.5625,105%
same,viability at 4 days,[3]; Compound_conc 3.125,101%
same,viability at 4 days,[3]; Compound_conc 6.25,80.9%
same,viability at 4 days,[3]; Compound_conc 12.5,64.4%
same,viability at 4 days,[3]; Compound_conc 25,62.4%
same,viability at 4 days,[3]; Compound_conc 50,49.4%
same,viability at 4 days,[3]; Compound_conc 100,42%
same,2N,[4]; [6],59.64
same,4N,[4]; [6],39.45
same,8N,[4]; [6],0.91
same,Right_of_Gate1 (replicates),[4]; [6],40.36 and 39.92 and 40.00
same,Right_of_Gate2 (replicates),[4]; [6],0.91 and 0.89 and 1.00
same,2N,[4]; [7],59.25
same,4N,[4]; [7],40.16
same,8N,[4]; [7],0.59
same,Right_of_Gate1 (replicates),[4]; [7],40.75 and 40.54 and 40.62
same,Right_of_Gate2 (replicates),[4]; [7],0.59 and 0.51 and 0.57
same,2N,[4]; [8],58.82
same,4N,[4]; [8],40.66
same,8N,[4]; [8],0.52
same,Right_of_Gate1 (replicates),[4]; [8],41.18 and 41.58 and 39.89
same,Right_of_Gate2 (replicates),[4]; [8],0.52 (2×) and 0.50
same,2N,[4]; [9],2.81
same,4N,[4]; [9],3.65
same,8N,[4]; [9],93.54
same,Right_of_Gate1 (replicates),[4]; [9],97.19 and 96.75 and 95.65
same,Right_of_Gate2 (replicates),[4]; [9],93.54 and 93.93 and 86.65
same,mean_norm (caspase 3/7 glo),parental 293T cells; Concentration 0.0195312,0.9498
same,mean_norm (caspase 3/7 glo),parental 293T cells; Concentration 0.0390625,0.9355
same,mean_norm (caspase 3/7 glo),parental 293T cells; Concentration 0.078125,1.009
same,mean_norm (caspase 3/7 glo),parental 293T cells; Concentration 0.15625,0.7951
same,mean_norm (caspase 3/7 glo),parental 293T cells; Concentration 0.3125,0.7961
same,mean_norm (caspase 3/7 glo),parental 293T cells; Concentration 0.625,0.9439
same,mean_norm (caspase 3/7 glo),parental 293T cells; Concentration 1.25,1.163
same,mean_norm (caspase 3/7 glo),parental 293T cells; Concentration 2.5,1.635
same,mean_norm (caspase 3/7 glo),parental 293T cells; Concentration 5,1.96
same,mean_norm (caspase 3/7 glo),parental 293T cells; Concentration 10,2.136
same,"raw caspase 3/7 glo signal, single replicate",parental 293T cells; Concentration 19.5312,101820 and 113248 and 111453 and 123771
same,"raw caspase 3/7 glo signal, single replicate",parental 293T cells; Concentration 39.0625,126417 and 91473 and 129554 and 96056
same,"raw caspase 3/7 glo signal, single replicate",parental 293T cells; Concentration 78.125,125458 and 106940 and 132813 and 113259
same,"raw caspase 3/7 glo signal, single replicate",parental 293T cells; Concentration 156.25,92236 and 94370 and 93114 and 97215
same,"raw caspase 3/7 glo signal, single replicate",parental 293T cells; Concentration 312.5,90006 and 94305 and 93528 and 99564
same,"raw caspase 3/7 glo signal, single replicate",parental 293T cells; Concentration 625,118546 and 104034 and 117323 and 107564
same,"raw caspase 3/7 glo signal, single replicate",parental 293T cells; Concentration 1250,131108 and 131356 and 152167 and 136802
same,"raw caspase 3/7 glo signal, single replicate",parental 293T cells; Concentration 2500,182654 and 187485 and 215491 and 189535
same,"raw caspase 3/7 glo signal, single replicate",parental 293T cells; Concentration 5000,226831 and 221170 and 240802 and 240601
same,"raw caspase 3/7 glo signal, single replicate",parental 293T cells; Concentration 10000,259590 and 240701 and 269097 and 243095
same,mean_norm (caspase 3/7 glo),[5]; Concentration 0.0195312,0.7877
same,mean_norm (caspase 3/7 glo),[5]; Concentration 0.0390625,0.7982
same,mean_norm (caspase 3/7 glo),[5]; Concentration 0.078125,0.8973
same,mean_norm (caspase 3/7 glo),[5]; Concentration 0.15625,0.6969
same,mean_norm (caspase 3/7 glo),[5]; Concentration 0.3125,0.7125
same,mean_norm (caspase 3/7 glo),[5]; Concentration 0.625,0.7879
same,mean_norm (caspase 3/7 glo),[5]; Concentration 1.25,1.419
same,mean_norm (caspase 3/7 glo),[5]; Concentration 2.5,1.997
same,mean_norm (caspase 3/7 glo),[5]; Concentration 5,1.954
same,mean_norm (caspase 3/7 glo),[5]; Concentration 10,2.025
same,"raw caspase 3/7 glo signal, single replicate",[5]; Concentration 19.5312,115256 and 127200 and 115855 and 132591
same,"raw caspase 3/7 glo signal, single replicate",[5]; Concentration 39.0625,137775 and 105993 and 131607 and 122061
same,"raw caspase 3/7 glo signal, single replicate",[5]; Concentration 78.125,135249 and 137668 and 143467 and 142866
same,"raw caspase 3/7 glo signal, single replicate",[5]; Concentration 156.25,101297 and 110278 and 108541 and 114189
same,"raw caspase 3/7 glo signal, single replicate",[5]; Concentration 312.5,98096 and 116170 and 98914 and 130859
same,"raw caspase 3/7 glo signal, single replicate",[5]; Concentration 625,117128 and 121353 and 128759 and 123804
same,"raw caspase 3/7 glo signal, single replicate",[5]; Concentration 1250,212391 and 226804 and 198553 and 246616
same,"raw caspase 3/7 glo signal, single replicate",[5]; Concentration 2500,314760 and 286983 and 322612 and 319985
same,"raw caspase 3/7 glo signal, single replicate",[5]; Concentration 5000,280409 and 304325 and 302507 and 330408
same,"raw caspase 3/7 glo signal, single replicate",[5]; Concentration 10000,320499 and 297797 and 322913 and 320880

# — publication PMC13128454, “Mutant p53 protein accumulation is selectively targetable by proximity-inducing drugs” (Nature Chemical Biology, 2025)
